Source: PMC9530963, “A cathelicidin antimicrobial peptide from Hydrophis cyanocinctus inhibits Zika virus infection by downregulating expression of a viral entry factor” (The Journal of Biological Chemistry, 2022)

Assays:
Assay type in all cases: cell-based, Homo sapiens
PGE2 = PGE2 production in A549 cells (ELISA); settings: 24 h, cell supernatant
Method: Figure 6 Hc-CATH downregulates AXL via inhibiting COX-2/PGE2/AC/PKA pathway.A, effect of Hc-CATH on COX-2 protein level. A549 cells were incubated with Hc-CATH (1.25, 2.5, or 5 μM) or PBS (solvent of Hc-CATH) at 37 °C for 24 h, COX-2 protein level was examined by Western blot (upper panel) and analyzed by ImageJ (lower panel). B, effect of Hc-CATH on the enzymatic activity of COX-2. Hc-CATH (1.25, 2.5, 5, and 10 μM) or PBS was incubated with COX-2. After incubation at 37 °C for 10 min, the enzymatic activity of COX-2 was detected by enzyme activity inhibitor screening kit. Celecoxib (COX-2 inhibitor, 100 nM) was used as positive control. C, effect of Hc-CATH on PGE2 production. A549 cells were incubated with Hc-CATH (5 μM) at 37 °C. After incubation for 24 h, the level of PGE2 in the cell supernatant was detected by ELISA. D and E, effect of AC (D) and PKA (E) on Hc-CATH-induced AXL downregulation. A549 cells were incubated with forskolin (FSK, agonist of AC, 10 μM) or H89 (inhibitor of PKA, 5 μM) at 37 °C. After incubation for 1 h, the culture media were removed, cells were washed three times with PBS, and fresh culture media were added to cells in the presence of Hc-CATH (5 μM). After incubation for 24 h, AXL protein level was examined by Western blot (upper panel of D and E) and analyzed by ImageJ (lower panel of D and E). ns, not significant, ∗∗p < 0.01, and ∗∗∗p < 0.001. […]

AXL = AXL level in A549 cells (Western blot, immunofluorescence); settings: 1.25, 2.5, and 5 μM, 24 h, with and without ZIKV challenge
Method: Figure 4 Hc-CATH downregulates AXL in A549 cell.A, schematic diagram of B and C. B, A549 cells were seeded in 24-well plates (5 × 10^4 cells/well) and cultured in DMEM containing 2% FBS. Hc-CATH (1.25, 2.5, and 5 μM) or same volume of PBS (peptide solvent) was added to cells and incubated at 37 °C for 24 h. The level of AXL was tested by Western blot. C, A549 cells were seeded in 8-well cover slip chambers (5 × 10^4 cells/well) and cultured in DMEM containing 2% FBS. Hc-CATH (1.25, 2.5, and 5 μM) or PBS was added to cells and incubated at 37 °C for 24 h. The level of AXL was tested by immunofluorescence staining. The scale bar represents 50 μm. D, schematic diagram of E and G. E and G, A549 cells were seeded in 24-well plates (5 × 10^4 cells/well) and cultured in DMEM containing 2% FBS. Hc-CATH (1.25, 2.5, and 5 μM) or PBS was added to cells and incubated at 37 °C for 2 h. Cells were washed with PBS and incubated with ZIKV (MOI = 1). After incubation at 37 °C for 2 h, cells were washed with PBS and cultured in DMEM containing 2% FBS.
The effect of Hc-CATH on AXL was further confirmed in A549 and U251 cells. A549 or U251 cells were incubated with Hc-CATH (1.25, 2.5, and 5 μM) or PBS at 37 °C for 24 h, and the level of AXL was detected by WB and IF, respectively. Upon ZIKV challenge, A549 or U251 cells were incubated with Hc-CATH (1.25, 2.5, and 5 μM) or PBS at 37 °C for 2 h. […]

type I IFN signaling = experiment: Type I IFN signaling in U251 cells (qPCR, Western blot)
Method: Figure 7 Hc-CATH-induced AXL downregulation reverses the negative regulation of AXL on type I IFN signaling.A, schematic diagram of B and C. B, effect of Hc-CATH on type I IFN signaling. U251 cells were cultured in the presence of Hc-CATH (2.5 μM) or same volume of PBS (solvent of peptide). After culture at 37 °C for 24 h, type I IFN genes were tested by qPCR. C, effect of Hc-CATH on type I IFN signaling upon ZIKV challenge. U251 cells were cultured in the presence of Hc-CATH (2.5 μM) or PBS (solvent of peptide) at 37 °C for 2 h. Cells were washed with PBS and incubated with ZIKV (MOI = 1) at 37 °C for 2 h. Cell were washed with PBS again and cultured in DMEM containing 2% FBS at 37 °C for 24 h. Type I IFN genes were tested by qPCR. D, schematic diagram of E–G. E and F, U251 cells were cultured in the presence of Hc-CATH (2.5 μM) or PBS (solvent of peptide) at 37 °C for 12 h. Cells were stimulated with SeV (MOI = 1) at 37 °C for 12 h. Type I IFN gene was tested by qPCR (E). […] DMEM, Dulbecco’s modified Eagle’s medium; FBS, fetal bovine serum; IFN, interferon; MOI, multiplicity of infection; qPCR, quantitative PCR; SeV, Sendai virus; ZIKV, Zika virus.
U251 cells were cultured with Hc-CATH (2.5 μM) or PBS at 37 °C for 24 h, and cells were collected for testing type I IFN signaling gene and protein by qPCR and WB, respectively. Upon ZIKV challenge, U251 cells were incubated with Hc-CATH (2.5 μM) or PBS at 37 °C for 2 h and washed three times with PBS. Cells were then incubated with ZIKV (MOI = 1) for 2 h and washed with PBS. After culture for 24 h, type I IFN signaling genes were tested by qPCR. Upon SeV challenge, U251 cells were incubated with Hc-CATH (2.5 μM) or PBS at 37 °C for 12 h, cells were then stimulated with SeV or same volume of PBS for 12 h, and type I IFN signaling gene and protein were tested by qPCR and WB, respectively.

## KFFKRLLKSVRRAVKKFRKKPRLIGLSTLL [Hc-CATH, cathelicidin antimicrobial peptide identified from the sea snake Hydrophis cyanocinctus]
PGE2
  synthesis of PGE2: significantly reduced the synthesis of PGE2
AXL
  level of AXL in A549 cells: effectively decreased the level of AXL
Type I IFN signaling; 2.5 μM 2 h, then ZIKV MOI = 1, 24 h, qPCR
  levels of type I IFN genes in response to ZIKV infection: upregulated the levels of type I IFN genes
Type I IFN signaling; 2.5 μM 12 h, then SeV MOI = 1 12 h, qPCR, compared with PBS
  IFN-β expression in response to SeV stimulation: significantly increased IFN-β expression
Type I IFN signaling; 2.5 μM, 24 h, qPCR
  levels of type I IFN genes: significantly increased the levels of type I IFN genes
Type I IFN signaling; 2.5 μM, Western blot, relative to PBS
  phosphorylation of TANK-binding kinase 1 and IRF3: increased the phosphorylation of TANK-binding kinase 1 and IRF3
